Test results reported in patent US8999940B2 (Ipsen Pharma S.A.S., priority 2008, dated 2015).

Assays:
[1] = Rat plasma half-life assay; format: in vitro ADME; settings: 37° C., LC-MS, read-out: Rat Plasma T½ (converted)
Description: (§1) B. Human and Rat Plasma Half-Life Assay
(§2) 50 μl was removed at various times, like at 0, 1, 2, 3, 4, 8, 24, 32, 48, 56, 72 hours, mixed with 5 μl formic acid and 150 μL acetonitrile in a microcentrifuge tube, vertexed, and centrifuged for 10 minutes at 10 K rpm. The supernatant was transferred to an injection vial and analyzed by LC-MS. The LC-MS system consisted of an API4000 mass spectrometer with an ESI probe. Positive ion mode and full scan detection were used. HPLC separation was carried out on a Luna 3μ. C8 (2), 2×30 mm column with a gradient from 90% A to 90% B in 10 minutes at a flow rate of 0.3 ml/min. Buffer A was 1% formic acid in water and buffer B was 1% formic acid acetonitrile.

[2] = biological target: T1, human recombinant GIP receptor (Homo sapiens, UniProt P48546); assay: In vitro hGIP receptor binding assay
T1 construct: expressed in transfected cells; host or cells: CHO-K1 clonal cells (membrane preparation)
T1 sequence (P48546 22-466): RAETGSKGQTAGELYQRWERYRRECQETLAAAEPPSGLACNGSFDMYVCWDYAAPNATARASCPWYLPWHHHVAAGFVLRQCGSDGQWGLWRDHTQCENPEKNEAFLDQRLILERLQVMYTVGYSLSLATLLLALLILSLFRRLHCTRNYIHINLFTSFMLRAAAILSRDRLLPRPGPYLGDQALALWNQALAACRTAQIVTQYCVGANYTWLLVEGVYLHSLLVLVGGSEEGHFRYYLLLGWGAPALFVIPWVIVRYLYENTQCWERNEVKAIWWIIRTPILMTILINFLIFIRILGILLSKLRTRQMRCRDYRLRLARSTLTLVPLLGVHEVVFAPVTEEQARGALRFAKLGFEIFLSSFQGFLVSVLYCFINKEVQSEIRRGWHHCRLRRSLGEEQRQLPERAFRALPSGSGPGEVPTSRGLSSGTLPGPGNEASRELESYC
Description: A. In Vitro hGIP Receptor Binding Assay […] The incubations were terminated by rapid filtration through GF/C filters (pre-soaked in 0.5% polyethylenimine) using a Brandel filtration manifold. Each tube and filter were then washed three times with 5-ml aliquots of ice-cold buffer.

[3] = Human plasma half-life assay; format: in vitro ADME; settings: 37° C., LC-MS, read-out: Human Plasma T½ (converted)
Description: as §1, §2

CCCC[C@H](NC(=O)[C@H](C)NC(=O)[C@@H](NC(=O)C1(NC(=O)[C@H](Cc2ccc(O)cc2)NC(=O)[C@H](CC(=O)O)NC(=O)[C@H](CO)NC(=O)[C@@H](NC(=O)[C@H](Cc2ccccc2)NC(=O)[C@@H](NC(=O)CNC(=O)[C@H](CCC(=O)O)NC(=O)C(C)(C)NC(=O)[C@@H](N)Cc2cc(Br)c(O)c(Br)c2)[C@@H](C)O)[C@@H](C)CC)CCCC1)[C@@H](C)CC)C(=O)N[C@@H](CC(=O)O)C(=O)N[C@@H](CCCCN)C(=O)N[C@H](C(=O)N[C@@H](Cc1c[nH]cn1)C(=O)N[C@@H](CCC(N)=O)C(=O)N[C@@H](CCC(N)=O)C(=O)N[C@@H](CC(=O)O)C(=O)N[C@@H](Cc1ccccc1)C(=O)N[C@H](C(=O)N[C@@H](CC(N)=O)C(=O)N[C@@H](Cc1c[nH]c2ccccc12)C(=O)N[C@@H](CC(C)C)C(=O)N[C@@H](CC(C)C)C(=O)N[C@@H](C)C(=O)N[C@@H](CCC(N)=O)C(=O)N[C@@H](CCCCN)C(=O)NCC(=O)N[C@@H](CCCCN)C(=O)N[C@@H](CCCCN)C(=O)N[C@@H](CC(N)=O)C(=O)N[C@@H](CC(=O)O)C(=O)N[C@@H](Cc1c[nH]c2ccccc12)C(=O)N[C@@H](CCCCN)C(=O)N[C@@H](Cc1c[nH]cn1)C(=O)N[C@@H](CC(N)=O)C(=O)N[C@H](C(=O)N[C@H](C(=O)N[C@@H](CCC(N)=O)C(=O)O)[C@@H](C)O)[C@@H](C)CC)C(C)C)[C@@H](C)CC [Example 13, (3,5Br-Tyr^1, Aib^2, A5c^11, Nle^14)hGIP(1-42)-OH]
half-life at 0.1 mg/ml [1]: 13.1 h
Ki [2]: 21.8 nM
half-life at 0.1 mg/ml [3]: 50.6 h

CCCC[C@H](NC(=O)[C@H](C)NC(=O)[C@@H](NC(=O)C1(NC(=O)[C@H](Cc2ccc(O)cc2)NC(=O)[C@H](CC(=O)O)NC(=O)[C@H](CO)NC(=O)[C@@H](NC(=O)[C@H](Cc2ccccc2)NC(=O)[C@@H](NC(=O)CNC(=O)[C@H](CCC(=O)O)NC(=O)C(C)(C)NC(=O)[C@@H](N)Cc2ccc(O)c(Br)c2)[C@@H](C)O)[C@@H](C)CC)CCCC1)[C@@H](C)CC)C(=O)N[C@@H](CC(=O)O)C(=O)N[C@@H](CCCCN)C(=O)N[C@H](C(=O)N[C@@H](Cc1c[nH]cn1)C(=O)N[C@@H](CCC(N)=O)C(=O)N[C@@H](CCC(N)=O)C(=O)N[C@@H](CC(=O)O)C(=O)N[C@@H](Cc1ccccc1)C(=O)N[C@H](C(=O)N[C@@H](CC(N)=O)C(=O)N[C@@H](Cc1c[nH]c2ccccc12)C(=O)N[C@@H](CC(C)C)C(=O)N[C@@H](CC(C)C)C(=O)N[C@@H](C)C(=O)N[C@@H](CCC(N)=O)C(=O)N[C@@H](CCCCN)C(=O)NCC(=O)N[C@@H](CCCCN)C(=O)N[C@@H](CCCCN)C(=O)N[C@@H](CC(N)=O)C(=O)N[C@@H](CC(=O)O)C(=O)N[C@@H](Cc1c[nH]c2ccccc12)C(=O)N[C@@H](CCCCN)C(=O)N[C@@H](Cc1c[nH]cn1)C(=O)N[C@@H](CC(N)=O)C(=O)N[C@H](C(=O)N[C@H](C(=O)N[C@@H](CCC(N)=O)C(=O)O)[C@@H](C)O)[C@@H](C)CC)C(C)C)[C@@H](C)CC [Example 15, (3Br-Tyr^1, Aib^2, A5c^11, Nle^14)hGIP(1-42)-OH]
half-life at 0.1 mg/ml [1]: 22.9 h
Ki [2]: 0.6 nM
half-life at 0.1 mg/ml [3]: 50.6 h

CCCC[C@H](NC(=O)[C@H](C)NC(=O)[C@@H](NC(=O)C1(NC(=O)[C@H](Cc2ccc(O)cc2)NC(=O)[C@H](CC(=O)O)NC(=O)[C@H](CO)NC(=O)[C@@H](NC(=O)[C@H](Cc2ccccc2)NC(=O)[C@@H](NC(=O)CNC(=O)[C@H](CCC(=O)O)NC(=O)C(C)(C)NC(=O)[C@@H](N)Cc2ccc(O)c(I)c2)[C@@H](C)O)[C@@H](C)CC)CCCC1)[C@@H](C)CC)C(=O)N[C@@H](CC(=O)O)C(=O)N[C@@H](CCCCN)C(=O)N[C@H](C(=O)N[C@@H](Cc1c[nH]cn1)C(=O)N[C@@H](CCC(N)=O)C(=O)N[C@@H](CCC(N)=O)C(=O)N[C@@H](CC(=O)O)C(=O)N[C@@H](Cc1ccccc1)C(=O)N[C@H](C(=O)N[C@@H](CC(N)=O)C(=O)N[C@@H](Cc1c[nH]c2ccccc12)C(=O)N[C@@H](CC(C)C)C(=O)N[C@@H](CC(C)C)C(=O)N[C@@H](C)C(=O)N[C@@H](CCC(N)=O)C(=O)N[C@@H](CCCCN)C(=O)NCC(=O)N[C@@H](CCCCN)C(=O)N[C@@H](CCCCN)C(=O)N[C@@H](CC(N)=O)C(=O)N[C@@H](CC(=O)O)C(=O)N[C@@H](Cc1c[nH]c2ccccc12)C(=O)N[C@@H](CCCCN)C(=O)N[C@@H](Cc1c[nH]cn1)C(=O)N[C@@H](CC(N)=O)C(=O)N[C@H](C(=O)N[C@H](C(=O)N[C@@H](CCC(N)=O)C(=O)O)[C@@H](C)O)[C@@H](C)CC)C(C)C)[C@@H](C)CC [Example 16, (3I-Tyr^1, Aib^2, A5c^11, Nle^14)hGIP(1-42)-OH]
half-life at 0.1 mg/ml [1]: 18.5 h
Ki [2]: 5.03 nM
half-life at 0.1 mg/ml [3]: 52.1 h

CCCC[C@H](NC(=O)[C@H](C)NC(=O)[C@@H](NC(=O)C1(NC(=O)[C@H](Cc2ccc(O)cc2)NC(=O)[C@H](CC(=O)O)NC(=O)[C@H](CO)NC(=O)[C@@H](NC(=O)[C@H](Cc2ccccc2)NC(=O)[C@@H](NC(=O)CNC(=O)[C@H](CCC(=O)O)NC(=O)C(C)(C)NC(=O)[C@@H](N)Cc2cc(I)c(O)c(I)c2)[C@@H](C)O)[C@@H](C)CC)CCCC1)[C@@H](C)CC)C(=O)N[C@@H](CC(=O)O)C(=O)N[C@@H](CCCCN)C(=O)N[C@H](C(=O)N[C@@H](Cc1c[nH]cn1)C(=O)N[C@@H](CCC(N)=O)C(=O)N[C@@H](CCC(N)=O)C(=O)N[C@@H](CC(=O)O)C(=O)N[C@@H](Cc1ccccc1)C(=O)N[C@H](C(=O)N[C@@H](CC(N)=O)C(=O)N[C@@H](Cc1c[nH]c2ccccc12)C(=O)N[C@@H](CC(C)C)C(=O)N[C@@H](CC(C)C)C(=O)N[C@@H](C)C(=O)N[C@@H](CCC(N)=O)C(=O)N[C@@H](CCCCN)C(=O)NCC(=O)N[C@@H](CCCCN)C(=O)N[C@@H](CCCCN)C(=O)N[C@@H](CC(N)=O)C(=O)N[C@@H](CC(=O)O)C(=O)N[C@@H](Cc1c[nH]c2ccccc12)C(=O)N[C@@H](CCCCN)C(=O)N[C@@H](Cc1c[nH]cn1)C(=O)N[C@@H](CC(N)=O)C(=O)N[C@H](C(=O)N[C@H](C(=O)N[C@@H](CCC(N)=O)C(=O)O)[C@@H](C)O)[C@@H](C)CC)C(C)C)[C@@H](C)CC [Example 17, (3,51-Tyr^1, Aib^2, A5c^11, Nle^14)hGIP(1-42)-OH]
half-life at 0.1 mg/ml [1]: 30.1 h
Ki [2]: 77.9 nM
half-life at 0.1 mg/ml [3]: > 72 h

CCCC[C@H](NC(=O)[C@H](C)NC(=O)[C@@H](NC(=O)C1(NC(=O)[C@H](Cc2ccc(O)cc2)NC(=O)[C@H](CC(=O)O)NC(=O)[C@H](CO)NC(=O)[C@@H](NC(=O)[C@H](Cc2ccccc2)NC(=O)[C@@H](NC(=O)CNC(=O)[C@H](CCC(=O)O)NC(=O)C(C)(C)NC(=O)[C@@H](N)Cc2ccc(N)cc2)[C@@H](C)O)[C@@H](C)CC)CCCC1)[C@@H](C)CC)C(=O)N[C@@H](CC(=O)O)C(=O)N[C@@H](CCCCN)C(=O)N[C@H](C(=O)N[C@@H](Cc1c[nH]cn1)C(=O)N[C@@H](CCC(N)=O)C(=O)N[C@@H](CCC(N)=O)C(=O)N[C@@H](CC(=O)O)C(=O)N[C@@H](Cc1ccccc1)C(=O)N[C@H](C(=O)N[C@@H](CC(N)=O)C(=O)N[C@@H](Cc1c[nH]c2ccccc12)C(=O)N[C@@H](CC(C)C)C(=O)N[C@@H](CC(C)C)C(=O)N[C@@H](C)C(=O)N[C@@H](CCC(N)=O)C(=O)N[C@@H](CCCCN)C(=O)NCC(=O)N[C@@H](CCCCN)C(=O)N[C@@H](CCCCN)C(=O)N[C@@H](CC(N)=O)C(=O)N[C@@H](CC(=O)O)C(=O)N[C@@H](Cc1c[nH]c2ccccc12)C(=O)N[C@@H](CCCCN)C(=O)N[C@@H](Cc1c[nH]cn1)C(=O)N[C@@H](CC(N)=O)C(=O)N[C@H](C(=O)N[C@H](C(=O)N[C@@H](CCC(N)=O)C(=O)O)[C@@H](C)O)[C@@H](C)CC)C(C)C)[C@@H](C)CC [Example 18, (4NH2-Phe^1, Aib^2, A5c^11, Nle^14)hGIP(1-42)-OH]
half-life at 0.1 mg/ml [1]: 32.1 h
Ki [2]: 3.4 nM
half-life at 0.1 mg/ml [3]: > 72 h
